Drawing on patent publication EP0186807A2, “Anthracycline derivatives, their microbiological preparation and their use as medicines” (HOECHST AKTIENGESELLSCHAFT, priority 1984, dated 1986), this text covers IC50, Löslichkeit and zone of inhibition for three compounds.

SMILES strings stand for the structures. Converted amounts (≈) assume the structure as drawn.

Series [1] relates to Mäuse-L 1210-Leukämiezellen. The experiment in a line: Proliferation test (14C-thymidine incorporation). Format: cell-based. Conditions: Mus musculus, read-out: IC50 Proliferations-test. From the text:
(§1) Die Ermittlung der zytostatischen Aktivität der Kesarirhodine erfolgte in der nachfolgend beschriebenen Weise an Mäuse-L 1210-Leukämiezellen.
Bei dieser in vitro-Methode ist es nach der Inkubation der Zellen mit verschiedenen Konzentrationen der Prüfsubstanz möglich, die eingebaute Menge eines radioaktiv markierten DNS-Vorläufers (z.B. 14C-Thymidin) in einer wachsenden Zelle zu bestimmen. Als Kontrolle dienen dem gleichen Verfahren unterzogenen unbehandelte L 1210-Zellen. Die Methode wird nachstehend kurz zusammengefaßt: • L 1210-Zellen in exponentieller Wachstumsphase (5 x 10^3/ml in RPMI 1640) werden 72 Stunden lang (37°C, 5 % C02, 95 % relative Feuchtigkeit) in einer 96-Loch-Mikrotiterplatte mit unterschiedlichen Konzentrationen der Prüfsubstanz inkubiert. Als Kontrollen werden Zellen verwendet, die lediglich mit dem frischen Medium in Berührung gebracht werden. Es werden vier Löcher für jede Medikamentenkonzentration und Kontrolle angelegt. Nach 65 Stunden werden 50 µl 14C Thymidin (1,5 oCi/ml) zugefügt, um die Zell-DNS zu markieren. Nach 7 Stunden Inkubation werden die Zellen geerntet, die DNS mit 5 % Trichloressigsäure abgetrennt und mit Wasser und Methanol gewaschen. Nach dem Trocknen bei 50°C wird die Szintillationszahl mit 5 ml Szintillationsflüssigkeit bestimmt.
Die Ergebnisse werden als Quotient des Szintillationsindex nach der Inkubation mit den Testsubstanzen mit dem der Kontrollsubstanz ausgedrückt. Mit den ermittelten Werten wird eine Dosiswirkungskurve gezeichnet und der Wert IC50 d.h. die Konzentration der Prüfsubstanz, die den Einbau von markiertem Thymidin im Vergleich zur Kontrolle um 50 % hemmt, graphisch ermittelt. Die IC50-Werte sind denen von Adriamycin in der folgenden Tabelle III gegenübergestellt.
For orientation: Dividing cells build labelled thymidine or BrdU into new DNA.

Series [2] deals with Mäuse-L 1210-Leukämiezellen. The experiment in a line: Stem cell test (colony formation in soft agar, continuous incubation). Format: cell-based. Conditions: Mus musculus, L1210, 168 h, read-out: IC50 Stammzellentest 7 Tage Inkubation.
Text: as §1
Diese Methode dient zum Nachweis der Wirkung der Prüfsubstanz auf das Wachstum von Leukämiezellen über mehrere Generationen (da die Dauer eines Zellzyklus 10 - 12 Stunden beträgt, werden innerhalb des Untersuchungszeitraumes von 7 Tagen rund 14 aufeinanderfolgende Generationen erfaßt).
In diesem Test beruht die Wirkung von zytotoxischen Substanzen auf der Verminderung der Zahl beobachtbarer Kolonien im Vergleich zur unbehandelten Kontrolle. Es wird folgende Methodik verwendet: • Pro Platte werden 500 L 1210-Leukämiezellen verwendet. Die Experimente werden bei kontinuierlicher Inkubation mit verschiedenen Konzentrationen der Prüfsubstanz durchgeführt, wobei die Substanz vor dem Aufbringen der Zellen auf die Platte der oberen Agarschicht beigemischt wird. Die Platten werden 7 Tage lang in einem Brutschrank gelagert (37°C, 5 % C023 95 % relative Luftfeuchtigkeit). Anschließend wird die Anzahl der entstandenen Kolonien mit einem Durchmesser von mehr als 60 um mit einem umgekehrten Mikroskop gezählt. Die Resultate werden als Prozentsatz der auf den behandelten Platten gebildeten Kolonien im Vergleich zu denen der unbehandelten Kontrolle ausgedrückt. Mit den ermittelten Werten wird eine Dosiswirkungskurve gezeichnet, aus welcher der IC50-Wert graphisch ermittelt wird. Die IC50-Werte der Kesarirhodine werden in Tabelle III mit denen von Adriamycin verglichen.

Series [3] in a line: Solubility in solvents (qualitative). The series is classed as physicochemical.
A further series concerns Bacillus subtilis. The experiment in a line: Bacteriostatic activity, agar well diffusion (inhibition zone). The series is classed as cell-based. As to conditions: 1 mg/ml solution in a 6 mm well in agar containing Bacillus subtilis; read-out: Hofdurchmesser. Here is the method: (§2) Bestimmt wurde die bakteriostatische Wirkung von Kesarirhodin. Die Resultate, die als Durchmesser (in Millimetern) der Hemmhöfe, erzeugt durch die Substanz in Form einer 1 mg/ml-Lösung in einem Loch von 6 mm Durchmesser in Agar, das den Testorganismus enthält, angegeben sind, werden in der nachfolgenden Tabelle, Tabelle II, dargestellt. Kesarirhodine sind gegen gram-positive Bakterien und Pilze wirksam und können deshalb als Antibiotika zur Behandlung von Pilz- und Staphylokokken-Infektionen, Diphterie, Pneumonie usw. eingesetzt werden.
On the technique in general: A growth-free zone around the sample is the usual read-out of agar diffusion tests.

In series [4] the test system is Staphylococcus aureus 209P. Described as above. Format: cell-based. Conditions: 1 mg/ml solution in a 6 mm well in agar containing Staphylococcus aureus 209P; read-out: Hofdurchmesser. Here is the method: as §2
The test system of the next series is Candida albicans. Put plainly: Agar well diffusion (inhibition zone). The series is classed as cell-based. As to conditions: 1 mg/ml solution in a 6 mm well in agar containing Candida albicans; read-out: Hofdurchmesser. Here is the method: as §2
Setting [5] is: L1210, L 1210 cells, 72 h incubation, 14C-thymidine incorporation, read graphically from dose-response curve.
Setting [6] is: in Hexan (n-Hexan) und Petroläther (Petroleumäther).
Setting [7] is: in Methanol, Aceton, Äthylacetat, Chloroform und schwachen Säuren.
Where [8] appears, read: 500 L 1210 cells per plate, soft agar, continuous incubation 7 days, colonies > 60 µm.

As to `COc1cccc2c1C(=O)c1c(O)c3c(c(O)c1C2=O)C[C@@](O)(C(=O)CO)C[C@@H]3O[C@H]1C[C@H](N)[C@H](O)[C@H](C)O1` [Adriamycin, reference compound], the IC50 in series [1] (L1210, 72 h) came to 0.006 µg/mL (≈ 0.011 µM); in series [2], 0.022 µg/mL (≈ 0.0405 µM).

Turning to `CC[C@]1(O)Cc2c(O)c3c(c(O)c2[C@@H](O[C@H]2C[C@H](N(C)C)[C@H](O[C@H]4CC[C@H](O[C@H]5CC[C@H](O)[C@H](C)O5)[C@H](C)O4)[C@H](C)O2)C1)C(=O)c1c(O)cccc1C3=O` [Kesarirhodin B], the IC50 in series [1] (setting [5]) turned out to be 0.1 µg/mL (≈ 0.132 µM); in series [2] (setting [8]) it was 0.028 µg/mL (≈ 0.037 µM). Moreover, the results for the Löslichkeit result in series [3] (setting [6]) and in series [3] (setting [7]) were “wenig löslich” and “löslich”, respectively. Moreover, the zone of inhibition at 1000 µg/mL with Bacillus subtilis stood at 17 mm; in series [4] it was 17 mm; in the series on Candida albicans, 20 mm.

As for `CC[C@]1(O)Cc2c(O)c3c(c(O)c2[C@@H](O[C@H]2C[C@H](N(C)C)[C@H](O[C@H]4C[C@H](O)[C@H](O[C@H]5CC[C@H](O)[C@H](C)O5)[C@H](C)O4)[C@H](C)O2)C1)C(=O)c1c(O)cccc1C3=O` [Kesarirhodin A], the IC50 in series [1] (setting [5]) and in series [2] (setting [8]) was 0.031 µg/mL (≈ 0.0402 µM) in each case. The Löslichkeit entry is recorded as “wenig löslich” in series [3] (setting [6]) and “löslich” in series [3] (setting [7]). The zone of inhibition at 1000 µg/mL amounted to 17 mm in the series on Bacillus subtilis, 15 mm in series [4] and 20 mm in the series with Candida albicans.
